Experimental findings from patent EP4799647A1, “CAMPTOTHECIN DRUG CONJUGATE, AND PREPARATION METHOD THEREFOR AND USE THEREOF” (Shanghai Qilu Pharmaceutical Research and Development …, priority 2023, dated 2025) are described below.

Molecules are shown by their SMILES.

Assay in all cases: Cell inhibitory activity experiment (CellTiter-Glo, 72 hours)
What all share (assay type): cell-based

In one assay the test system is COLO205. The note with it: Homo sapiens, COLO 205; COLO205, 72 hours. The method, then:
(§1) • a) All cell lines were cultured in complete medium at 37 °C under 5% CO2. • b) Cells in logarithmic growth phase were collected and counted by a […]. The cell viability was detected by trypan blue exclusion method, and guaranteed to be over 90%. • c) The cell density was adjusted with a complete medium. Subsequently, 80 µL of cell suspension was seeded into each well of a 96-well cell culture plate according to 3000 cells per well. • d) The cells in the 96-well plate were cultured at 37°C under 5% CO2. • e) 10× drug solution was prepared. […] The working concentration of the test compound was 5 µM. For the test group, 10 µL of serially diluted test compound was transferred into the corresponding experimental well of 96-well cell culture plate, and added with 10 µL of diluent containing an equal amount of DMSO (1%), and three replicate wells were set up for each drug concentration. Control wells were added with corresponding volumes of diluent. • f) The cells in the 96-well plate added with the drug were continuously cultured at 37°C under 5% CO2 for 72 hours. • g) CTG reagent (CellTiter-Glo® Luminescent Cell Viability Assay, purchased from Promega, Cat. No. G7571) was thawed, and the cell culture plate was equilibrated to room temperature for 30 minutes. • h) 100 µL of CTG solution was added into each well. • i) The plate was shaken on an orbital shaker for 5 minutes to induce cell lysis. • j) The cell culture plate was placed at room temperature for 20 minutes to stabilize luminescent signals. • k) Luminescence intensities were read, and data were collected. • l) The data were analyzed by using GraphPad Prism 7.0 software, non-linear S-curve regression was applied to fit the data for generating dose-response curves, and IC50 values were calculated accordingly. Specific experimental results were shown in Table 4. [formula] Table 4 Cell inhibitory activities of payload compounds in the present invention

Another assay deals with HCT15. The note with it: Homo sapiens, HCT-15; HCT15, 72 hours. The method, then:
as §1

In another assay the test system is A549. The note with it: Homo sapiens; A549, 72 hours. As for the experimental part: as §1
The subject of the next assay is SK-OV-3. The note with it: Homo sapiens; SK-OV-3, 72 hours. As for the experimental part: as §1
The next assay concerns COLO320DM. Particulars: Homo sapiens, COLO 320DM. As for the experimental part: as §1
Another assay relates to AsPC-1. The note with it: Homo sapiens, ASPC1; AsPC-1, 72 hours. As for the experimental part:
as §1

For another assay, the system named is HT29. The note with it: Homo sapiens, HT-29; HT29, 72 hours. As for the experimental part: as §1

What is called IC50 is the concentration at which inhibition is half-maximal.

As to `CC[C@@]1(O)C(=O)OCc2c1cc1n(c2=O)Cc2c-1nc1cc(F)c(F)cc1c2CO` [C1-5, (4S)-4-ethyl-8,9-difluoro-4-hydroxy-11-(hydroxymethyl)-3,4,12,14-tetrahydro-1H-pyrano[3', 4':6,7]indolizino[1,2-b]quinolin-3,14-dione], the IC50 with COLO205 is 24.3 nM; in the assay on HCT15, 142 nM; in the assay with A549, 21.1 nM; with SK-OV-3, 79.5 nM; with COLO320DM it was 196 nM; in the assay with AsPC-1, 1120 nM. In the assay on HT29, this compound showed an IC50 of 144 nM.

For the compound `CC[C@@]1(O)C(=O)OCc2c1cc1n(c2=O)Cc2c-1nc1cc(F)c(C)c3c1c2[C@@H](NC(=O)CO)CC3` [DXd], the IC50 with COLO205 amounted to 95.5 nM; in the assay on HCT15, 889 nM; in the assay on A549, 104 nM; with SK-OV-3, 288 nM; in the assay with COLO320DM it was 575 nM; in the assay on AsPC-1, 3100 nM. The compound also returned an IC50 in the assay with HT29 of 344 nM.

Regarding `CCc1c2c(nc3ccc(O)cc13)-c1cc3c(c(=O)n1C2)COC(=O)[C@]3(O)CC` [SN-38], the concentration for half-maximal inhibition (IC50) was 89.6 nM in the assay on COLO205; 313 nM with HCT15; 66.5 nM in the assay on A549; 168 nM with SK-OV-3; 1420 nM with COLO320DM; over 10000 nM with AsPC-1. In addition, in the assay with HT29, the IC50 is 287 nM.
